# Laboratory results published in patent US11673916B2, “Neuroprotective peptides and methods of their use” (University of Pittsburgh—Of the Commonwealth System of …, priority 2020, dated 2023).
# Test system: MCAo mouse model of ischemic stroke
# Experiment: Transient middle cerebral artery occlusion (MCAo), infarct ratio by TTC staining
# Assay type: in vivo
# Conditions: 50 minutes MCAo, IP peptide at one and six hours after reperfusion, 24 h after reperfusion, mean±SEM (FIG. 6D)
# Method: Mice were anesthetized with isoflurane and the common carotid artery was exposed. A single-use silicon-coated suture (MCAo suture #602256PK10; Doccol Corporation, Sharron, Mass.) was advanced 8-9 mm into the internal carotid artery, occluding the MCA. The suture was secured with 6-0 silk ligatures for 50 minutes, then removed. Twenty-four hours following cerebral reperfusion, mice were sacrificed and four 2-mm coronal brain sections were obtained from each animal. Sections were stained with 0.05% 2,3,5-triphenyltetrazolium chloride (TTC) in PBS for 30 minutes at room temperature. Brain sections were digitally scanned following staining and a blinded experimenter measured infarct ratios (infarct area/total section area) using NIH ImageJ software. Visual representation of this protocol is in FIG. 6B.
# The neuroprotective efficacy of TAT-DP-2 in vivo was next tested. […]
# Twenty-four hours following cerebral reperfusion after MCAo, total infarct ratios were analyzed (FIG. 6B) in tetrazolium chloride-stained brain sections (FIGS. 6B and 6C). […] A different, blinded observer then analyzed each animal and assigned an objective murine neurological score (MNS; Table 3) to each mouse over a 42-day period. As the MNS is based solely on characteristic motor deficits developed following left MCAo, all animals initially scored zero on the scale.
row,Sequence,mean total infarct ratio
1,"YGRKKRRQRRRSIDSFTS [TAT-DP-2, TAT-linked declustering peptide 2]",0.071±0.020
2,"YGRKKRRQRRRDFSSIST [TAT-Sc-2, TAT-linked scramble control peptide]",0.121±0.009
